The source of these data is US20200171066A1, “EYE DROP FOR TREATING DRY EYE” (Xiamen University, priority 2017, published 2020).

The subject of data set [1] is Patients with Sjogren's syndrome. To be noted: 0.03%; cited from earlier work.
Data set [2] relates to NF-κB signaling pathway. The following applies: 0.025% applied topically to the eye, mice; cited from earlier work.
Data set [3] deals with dry eye dogs. The following applies: 0.02% drops applied topically in the eye; cited from earlier work.
The conditions of data set [4]: cited from earlier work.
Data set [5] concerns corneal epithelial barrier of mice suffering dry eye. The data set can be described thus: Corneal OGD fluorescent staining in dry eye mouse model. To be noted: 0.1% eye drop, 4 times a day on both eyes. It counts as in vivo, C57BL/6 mice. The procedure: (§1) 1. Establish a dry eye mouse model: Female C57BL/6 mice of 10-12 weeks old were injected subcutaneously with scopolamine 0.5 mg/0.2 mL four times a day and kept in a dry environment for 5 days (RH: 30±3; T: 23-25° C.); normal control group was maintained in normal environment (RH: 60%-80%; T: 23-25° C.).
(§2) Preparation of mizoribine eye drop: dry eye treatment group used 0.1% of mizoribine eye drop prepared by the method of Embodiment 1.
(§3) Eye drop method: Eye drop treatment was performed using the above-mentioned eye drops 4 times a day on both eyes.
1. Corneal OGD fluorescent staining: mice were sacrificed, and 0.5 μl of Oregongreen-dextran (OGD) was dropped into the conjunctival sac of mice with a pipette, manual blinking was performed, and the conjunctival sac was washed with 1 mL of normal saline 1 minute later. The corneal epithelial fluorescence staining was observed and shot under a living fluorescence microscope.

Data set [6] deals with conjunctival goblet cells. The data set can be described thus: PAS staining of conjunctival goblet cells in dry eye mouse model. To be noted: 0.1% eye drop, compared with the dry eye group. It counts as in vivo, C57BL/6 mice. How it is done: as §1, §2, §3
2. PAS staining of conjunctival goblet cells: Paraffin specimens of the whole eyeballs (conjunctival sac) of the mice were cut into 5 um sections and stained with periodic acid-Schiff (PAS) reagent to observe the morphology and number of conjunctival goblet cells.

The test system of data set [7] is conjunctival CD4+T cell infiltration. As to the kind of experiment: Conjunctival CD4+T cell staining in dry eye mouse model. It is filed as in vivo, C57BL/6 mice. The following applies: 0.1% eye drop, compared with the dry eye group. How it is done: as §1, §2, §3
3. Conjunctival CD4+T cell staining: fixing frozen sections by acetone at −20° C. for 10 minutes, disrupting with 0.2% of Triton-X PBS for 10 minutes, and using 0.3% of H2O2 to eliminate endogenous peroxidase, blocking with 20% of normal goat serum for 45 minutes. The primary anti-CD4 was incubated for 1 hour at room temperature. After extensive washing (digestion), the biotinylated (second) antibody was incubated for 30 minutes. Finally, a Vectastain Elite ABC kit was used to develop color and stain the nucleus.

Data set [8] concerns IFN-γ. The data set can be described thus: Real-Time PCR of conjunctival RNA in dry eye mouse model. It counts as in vivo, C57BL/6 mice. To be noted: 0.1% eye drop, compared with the dry eye group. How it is done: as §1, §2, §3
(§4) Prepare the PCR reaction solution according to the following components:
(§5) Three-step PCR amplification standard procedure:
(§6) Stage 1: Pre-denaturation cycle number: 195° C., 30 sec.
(§7) Stage 2: number of PCR reaction cycles: 4095° C. for 5 sec. and 60° C. for 34 sec.
(§8) Stage 3: Dissolving curve
(§9) The relative expression level of the gene was analyzed by the relative Ct method, and the specific expression of the target gene was calculated by the following formula, that is to say, the relative expression level=2^−ΔΔCt; wherein −ΔΔCt=−(ΔCt, q−ΔCt, cb), ΔCt, q=Ct,x−Ct, r ΔCt, cb=Ct, cb−Ct, r, where r=reference gene, Cb=calibration value, X=target gene, and cycle threshold (C) is determined through primary signal (fluorescence).
A general note: Quantitative PCR measures a nucleic acid by following its amplification.

Data set [9] relates to IL-13. Described as above. It counts as in vivo, C57BL/6 mice. To be noted: 0.1% eye drop, compared with the dry eye group. How it is done:
as §1, §2, §3, §4, §5, §6, §7, §8, §9

Data set [10] relates to IL-1β. The data set is described as above. It is filed as in vivo, C57BL/6 mice. To be noted: 0.1% eye drop, compared with the dry eye group. The procedure: as §1, §2, §3, §4, §5, §6, §7, §8, §9
Data set [11] relates to TNF-α. Described as above. The following applies: 0.1% eye drop, compared with the dry eye group. It counts as in vivo, C57BL/6 mice. How it is done: as §1, §2, §3, §4, §5, §6, §7, §8, §9

Turning to `C=CC[C@@H]1/C=C(\C)C[C@H](C)C[C@H](OC)[C@H]2O[C@@](O)(C(=O)C(=O)N3CCCC[C@H]3C(=O)O[C@H](/C(C)=C/[C@@H]3CC[C@@H](O)[C@H](OC)C3)[C@H](C)[C@@H](O)CC1=O)[C@H](C)C[C@@H]2OC` [FK506, tacrolimus], in data set [1], the tear film stability entry was “improve tear film stability”. Moreover, in data set [2], the “activation of NF-κB signaling pathway” value is given as “inhibit the activation of NF-κB signaling pathway” and the “ocular surface signs of dry eye” value is listed as “reduce the ocular surface signs of dry eye”. In data set [3], the “amount of tear secretion” value was “significantly increase”. For the same compound, the solubility in water entry in data set [4] was “hardly soluble in water”.
Regarding `NC(=O)c1ncn([C@@H]2O[C@H](CO)[C@@H](O)[C@H]2O)c1O` [mizoribine], in [5], the “corneal flaky staining (OGD)” value is listed as “no flaky staining was observed”. Also, the “number of corneal punctiform staining (OGD)” value in data set [5] (compared with the dry eye group) is reported as “significantly reduced”. Moreover, the “number of conjunctival goblet cells (PAS)” value in [6] is listed as “significant increase”. For the same compound, the “proportion of brown-yellow cells (conjunctival CD4+T cells)” value in data set [7] was “significantly reduced”. In addition, the “expression of conjunctival IFN-γ” value in data set [8] is reported as “significantly decreased”. For the same compound, in data set [9], the “expression of conjunctival IL-13” value is on record as “significantly decreased”. Besides, the “expression of conjunctival IL-1β” value in data set [10] is recorded as “significantly decreased”. For the same compound, the “expression of conjunctival TNF-α” value in [11] is on record as “significantly decreased”.
